Like-named read-outs stand apart in the source and are kept apart here.
Tested on: multi-drug resistant strain of Plasmodium yoelii Nigeriensis
Assay: Antimalarial activity against multi-drug resistant P. yoelii in Swiss mice (4-day treatment, observation till day 28)
Type: in vivo
Conditions: for inhibition in vivo at 96 mg/kg/day / responders at 96 mg/kg/day / inhibition in vivo at 48 mg/kg/day / responders at 48 mg/kg/day / inhibition in vivo at 24 mg/kg/day / responders at 24 mg/kg/day: Plasmodium yoelii; for inhibition in vivo at 96 mg/kg/day / inhibition in vivo at 48 mg/kg/day / inhibition in vivo at 24 mg/kg/day: 96 h, read-out: % Suppression on Day 4; for responders at 96 mg/kg/day / responders at 48 mg/kg/day / responders at 24 mg/kg/day: 672 h
Procedure: The antimalarial activity of the test compounds was evaluated in rodent using multi-drug resistant strain of Plasmodium yoelii Nigeriensis in Swiss mice.
Random bred Swiss mice of either sex (20±2 gm) were inoculated intraperitoneally with 1×10^5 P. yoelii (MDR) parasites on day zero. The treatments with test compounds were administered to group of 5 mice each at different dose levels ranging between 24-96 mg/kg/day. The treatment was administered in groundnut oil intramuscularly and orally for 4 consecutive days (day 0-3). Blood smears from experimental mice were observed on day 4 and 7, day 10 and thereafter at regular intervals till day 28 or death of the animal. The parasitaemia level on day 4 was compared with vehicle control group and the percent suppression of parasitaemia in treated groups were calculated.
The dose at which no parasitaemia develop during the observation period has been reported as the curative dose.

[1] = Swiss mice, 24 mg/kg/day, oral, in groundnut oil, days 0-3
[2] = Swiss mice, 48 mg/kg/day, oral, in groundnut oil, days 0-3
[3] = Swiss mice, 96 mg/kg/day, oral, in groundnut oil, days 0-3
[4] = Swiss mice, 96 mg/kg/day, oral, in groundnut oil, days 0-3, read-out: Mice alive on day-28 (converted)
[5] = Swiss mice, 48 mg/kg/day, oral, in groundnut oil, days 0-3, read-out: Mice alive on day-28 (converted)
[6] = im, Swiss mice, 96 mg/kg/day, i.m., in groundnut oil, days 0-3
[7] = im, Swiss mice, 96 mg/kg/day, i.m., in groundnut oil, days 0-3, read-out: Mice alive on day-28 (converted)
[8] = Swiss mice, 96 mg/kg/day, i.m., in groundnut oil, days 0-3
[9] = Swiss mice, 24 mg/kg/day, oral, in groundnut oil, days 0-3, read-out: Mice alive on day-28 (converted)
[10] = im, Swiss mice, 48 mg/kg/day, i.m., in groundnut oil, days 0-3
[11] = im, Swiss mice, 48 mg/kg/day, i.m., in groundnut oil, days 0-3, read-out: Mice alive on day-28 (converted)
[12] = po, read-out: Mice alive on day-28

Q: `CCO[C@H]1O[C@@H]2O[C@@]3(C)CC[C@H]4[C@H](C)CC[C@@H]([C@H]1C)[C@@]24OO3` [β-Arteether, reference compound] was tested. Which “% Suppression on Day 4” value [1] did it give?
A: 100%

Q: What about the “Mice alive on day-28” value [1] of the same molecule?
A: 1/5

Q: And the “% Suppression on Day 4” value [2]?
A: 100%

Q: And the “Mice alive on day-28” value [2]?
A: 5/5

Q: With `C=C(c1ccc(-c2ccccc2)cc1)C1COC2(CCC(=CC(=O)OCC)CC2)OO1` (centres unmarked) [Compound 4ab, [3-(1-Biphenyl-4-yl-vinyl)-1,2,5-trioxa-spiro[5.5]undec-9-ylidene]-acetic acid ethyl ester] as the molecule, how does the inhibition in vivo at 96 mg/kg/day [3] read?
A: 100%

Q: And the responders at 96 mg/kg/day [4]?
A: 100%

Q: Which inhibition in vivo at 48 mg/kg/day [2] does the source give for `C=C(c1ccc(C2CCCCC2)cc1)C1COC2(CCC(=CC(=O)OCC)CC2)OO1` (centres unmarked) [Compound 4af, {3-[1-(4-Cyclohexyl-phenyl)-vinyl]-1,2,5-trioxa-spiro[5.5]undec-9-ylidene}-acetic acid ethyl ester] here?
A: 100%

Q: And the inhibition in vivo at 96 mg/kg/day [3]?
A: 100%

Q: And the responders at 48 mg/kg/day [5]?
A: 60%

Q: And the responders at 96 mg/kg/day [4]?
A: 80%

Q: How did the inhibition in vivo at 96 mg/kg/day [6] turn out when `C=C(c1cccc2ccccc12)C1COC2(CCC(=CC(=O)OCC)CC2)OO1` (centres unmarked) [Compound 4ag, [3-(1-Naphthalen-1-yl-vinyl)-1,2,5-trioxa-spiro[5.5]undec-9-ylidene]-acetic acid ethyl ester] was run?
A: 100%

Q: What about the responders at 96 mg/kg/day [7] of the same molecule?
A: 100%

Q: With `C=C(c1ccccc1)C1COC2(CCC(=O)CC2)OO1` (centres unmarked) [Compound 3a, 3-(1-Phenyl-vinyl)-1,2,5-trioxaspiro[5.5]undec-9-one] as the molecule, how does the “% Suppression on Day 4” value [8] read?
A: 99%

Q: And the “Mice alive on day-28” value [8]?
A: 0/5

Q: For `C=C(c1ccc(OC)cc1)C1COC2(CCC(=CC(=O)OCC)CC2)OO1` (centres unmarked) [Compound 4ad, {3-[1-(4-Methoxy-phenyl)-vinyl]-1,2,5-trioxa-spiro[5.5]undec-9-ylidene}-acetic acid ethyl ester], which inhibition in vivo at 96 mg/kg/day [3] is on record?
A: 100%

Q: And the responders at 96 mg/kg/day [4]?
A: 100%

Q: What about the inhibition in vivo at 96 mg/kg/day [6] of the same molecule?
A: 100%

Q: What about the responders at 96 mg/kg/day [7] of the same molecule?
A: 40%

Q: Which inhibition in vivo at 48 mg/kg/day [2] does the source give for `C=C(c1ccccc1)C1COC2(CCC(=CC(=O)OCC)CC2)OO1` (centres unmarked) [Compound 4aa, [3-(1-Phenyl-vinyl)-1,2,5-trioxa-spiro[5.5]undec-9-ylidene]-acetic acid ethyl ester] here?
A: 100%

Q: And the responders at 48 mg/kg/day [5]?
A: 100%

Q: And the inhibition in vivo at 96 mg/kg/day [6]?
A: 99%

Q: And the responders at 96 mg/kg/day [7]?
A: 40%

Q: Which results are given for `C=C(c1ccc(C)cc1)C1COC2(CCC(=CC(=O)OCC)CC2)OO1` (centres unmarked) [Compound 4ae, [3-(1-p-Tolyl-vinyl)-1,2,5-trioxa-spiro[5.5]undec-9-ylidene]-acetic acid ethyl ester]?
A: inhibition in vivo at 24 mg/kg/day [1]: 100%; inhibition in vivo at 48 mg/kg/day [2]: 100%; responders at 24 mg/kg/day [9]: 60%; responders at 48 mg/kg/day [5]: 100%; inhibition in vivo at 48 mg/kg/day [10]: 100%; inhibition in vivo at 96 mg/kg/day [6]: 100%; responders at 48 mg/kg/day [11]: 40%; responders at 96 mg/kg/day [7]: 100%

Q: `C=C(c1cccc2ccccc12)C1COC2(CCC(=O)CC2)OO1` (centres unmarked) [Compound 3g, 3-(1-Naphthalen-1-yl-vinyl)-1,2,5-trioxa-spiro [5.5]undecan-9-one] was tested. Which inhibition in vivo at 96 mg/kg/day [3] did it give?
A: 100%

Q: And the responders at 96 mg/kg/day [4]?
A: 20%

Q: Which inhibition in vivo at 96 mg/kg/day [3] does the source give for `C=C(c1ccc(C2CCCCC2)cc1)C1COC2(CCC(=O)CC2)OO1` (centres unmarked) [Compound 3f, 3-[1-(4-Cyclohexyl-phenyl)-vinyl]-1,2,5-trioxa-spiro[5.5]undecan-9-one] here?
A: 100%

Q: What about the responders at 96 mg/kg/day [4] of the same molecule?
A: 60%

Q: And the inhibition in vivo at 96 mg/kg/day [6]?
A: 100%

Q: What about the responders at 96 mg/kg/day [7] of the same molecule?
A: 40%

Q: What does the source list for `CCN(CC)CCCC(C)Nc1ccnc2cc(Cl)ccc12` (centres unmarked) [Chloroquine, reference compound]?
A: inhibition in vivo at 24 mg/kg/day (po): 100%; inhibition in vivo at 48 mg/kg/day (po): 100%; responders at 24 mg/kg/day [12]: 0%; responders at 48 mg/kg/day [12]: 40%

Q: What does the source list for `C=C(c1ccc2ccccc2c1)C1COC2(CCC(=CC(=O)OCC)CC2)OO1` (centres unmarked) [Compound 4ah, [3-(1-Naphthalen-2-yl-vinyl)-1,2,5-trioxa-spiro[5.5]undec-9-ylidene]-acetic acid ethyl ester]?
A: inhibition in vivo at 24 mg/kg/day [1]: 100%; inhibition in vivo at 48 mg/kg/day [2]: 100%; responders at 24 mg/kg/day [9]: 20%; responders at 48 mg/kg/day [5]: 100%; inhibition in vivo at 96 mg/kg/day [6]: 88%; responders at 96 mg/kg/day [7]: 40%

Q: What does the source list for `C=C(c1ccc(Cl)cc1)C1COC2(CCC(=O)CC2)OO1` (centres unmarked) [Compound 3c, 3-[1-(4-Chloro-phenyl)-vinyl]-1,2,5-trioxa-spiro[5.5]undecan-9-one]?
A: inhibition in vivo at 96 mg/kg/day [3]: 100%; responders at 96 mg/kg/day [4]: 0%

Q: How did the “% Suppression on Day 4” value [8] turn out when `C=C(c1ccc(-c2ccccc2)cc1)C1COC2(CCC(=O)CC2)OO1` (centres unmarked) [Compound 3b, 3-(1-Biphenyl-4yl-vinyl)-1,2,5-trioxaspiro[5.5]undec-9-one] was run?
A: 100%

Q: And the “Mice alive on day-28” value [8]?
A: 1/5

Q: Which inhibition in vivo at 96 mg/kg/day [3] does the source give for `C=C(c1ccc(C2CCCCC2)cc1)C1COC2(CCC(=C(C)C(=O)OCC)CC2)OO1` (centres unmarked) [Compound 4bf, 2-{3-[1-(4-Cyclohexyl-phenyl)-vinyl]-1,2,5-trioxa-spiro[5.5]undec-9-ylidene}-propionic acid ethyl ester] here?
A: 100%

Q: What about the responders at 96 mg/kg/day [4] of the same molecule?
A: 40%

Q: `C=C(c1ccc(Cl)cc1)C1COC2(CCC(=CC(=O)OCC)CC2)OO1` (centres unmarked) [Compound 4ac, {3-[1-(4-Chloro-phenyl)-vinyl]-1,2,5-trioxa-spiro[5.5]undec-9-ylidene}-acetic acid ethyl ester] was tested. Which inhibition in vivo at 24 mg/kg/day [1] did it give?
A: 100%

Q: And the inhibition in vivo at 48 mg/kg/day [2]?
A: 100%

Q: What about the responders at 24 mg/kg/day [9] of the same molecule?
A: 60%

Q: What about the responders at 48 mg/kg/day [5] of the same molecule?
A: 100%

Q: What about the inhibition in vivo at 48 mg/kg/day [10] of the same molecule?
A: 100%

Q: And the inhibition in vivo at 96 mg/kg/day [6]?
A: 100%

Q: And the responders at 48 mg/kg/day [11]?
A: 60%

Q: And the responders at 96 mg/kg/day [7]?
A: 100%

Q: Which results are given for `C=C(c1ccc(-c2ccccc2)cc1)C1COC2(CCC(=C(C)C(=O)OCC)CC2)OO1` (centres unmarked) [Compound 4bb, 2-[3-(1-Biphenyl-4-yl-vinyl)-1,2,5-trioxa-spiro [5.5]undec-9-ylidene]-propionic acid ethyl ester]?
A: inhibition in vivo at 96 mg/kg/day [3]: 100%; responders at 96 mg/kg/day [4]: 60%

Reference: US7495025B2, “Spiro-1,2,4-trioxanes” (Council of Scientific and Industrial Research, priority 2005, dated 2009)
